# In article PMC5581131, “The novel sphingosine-1-phosphate receptors antagonist AD2900 affects lymphocyte activation and inhibits T-cell entry into the lymph nodes” (Oncotarget, 2017):
# How the values were obtained:
# [1] = target: T1, S1P4 (Homo sapiens, UniProt O95977); assay: S1P4 antagonist test, Tango S1P4 (EDG6)-bla U-2 OS cells; type: cell-based; details: S1P4 TANGO U-2 OS cell line
# T1 construct: Tango fusion partner (protease site + GAL4-VP16 transcription factor); expressed in transfected cells; host or cells: Tango S1P4 (EDG6)-bla U-2 OS cells
# T1 sequence (O95977 1-384): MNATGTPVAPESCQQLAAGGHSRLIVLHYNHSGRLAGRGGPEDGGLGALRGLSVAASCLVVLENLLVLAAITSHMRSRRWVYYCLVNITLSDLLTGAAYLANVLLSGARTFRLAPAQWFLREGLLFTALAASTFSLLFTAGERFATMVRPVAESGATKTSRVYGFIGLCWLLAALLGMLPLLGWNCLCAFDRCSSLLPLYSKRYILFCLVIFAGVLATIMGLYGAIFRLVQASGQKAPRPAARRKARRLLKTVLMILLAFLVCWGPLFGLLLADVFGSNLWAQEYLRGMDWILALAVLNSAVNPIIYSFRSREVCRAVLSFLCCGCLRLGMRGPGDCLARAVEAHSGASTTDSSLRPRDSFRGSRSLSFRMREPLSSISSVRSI
# Method: Since AD2900 is a sphingolipid analogue with properties that resemble those of S1P, we intended to examine its ability to interact with the S1P receptors. To delineate whether AD2900 can function as an agonistic or antagonistic compound to any of the S1P receptors, we used a high-throughput screening cell-based assay, employing cell lines stably transfected with human S1P receptors 1, 2, 3, 4, or 5 [37]. In this experiment, a compound with an IC50 or EC50 value ≤10 μM for a certain S1P receptor is considered active as an antagonist or an agonist, respectively. The results illustrate that AD2900 acts as an antagonist to all S1P receptors (Table 1, Supplementary Figure 3). […] No agonist activation was evident.
# The S1P1 agonist test and S1P2, S1P3, S1P4, and S1P5 agonist and antagonist tests were conducted as previously described using S1P1 CRE-bla CHO cells, S1P2 CRE-bla CHO cells, S1P3 NFAT-bla CHO cells, Tango™ S1P4 (EDG6)-bla U-2 OS cells, and Tango™ S1P5 ([…])-bla U-2 OS cells. The S1P1 antagonist assay was carried out according to the manufacturer’s instructions using a Tango™ S1P1 (EDG1)-bla U-2 OS Cell-Based Assay (Invitrogen, NY, USA).
# [2] = test system: C57BL/6 mice; assay: T, B and NK cell populations in blood, spleen and lymph nodes, FACS; type: in vivo, mouse
# Source text: S1P receptors are differentially expressed by distinct immune cell populations. Since AD2900 is an antagonist to all S1P receptors, we next evaluated its influence on the localization of different murine lymphocyte populations. To achieve this aim, we performed FACS analysis of the blood (Figure 5A), spleen (Figure 5B), and lymph node cells (Figure 5C) using antibodies against surface markers of T cells, B cells, and NK cells (TCR-β, CD19, and CD49b, respectively). […] The NK cell count was elevated by 55.7% (4.741 ± 0.8621 × 10^6 cells/ml) after a 7-day treatment with AD2900. […] The trend in the B-cell change was opposite to that in the T- and NK cell changes in the lymph nodes.
# Figure 5 AD2900 treatment affects the distribution of T cells, B cells, and NK cells in blood, spleen, and peripheral lymph nodes C57BL/6 mice were orally administered with AD2900 or FTY720, as shown in Figure 4. Leukocytes from blood, spleen, and pLNs were collected and stained with TCR-β, CD19, and CD49b fluorescent antibodies and then analyzed by FACS analysis. The percentages of TCR-β+ T cells (left panel), CD19+ B cells (central panel), and CD49b+ NK cells (right panel) of the total leukocytes from blood (A), spleen (B), and pLNs (C) are shown. The results of T and B cells are from 2 days’ experiments. The results of NK cells are from 2 and 7 days’ experiments. All the significances are compared to untreated healthy mice. Results summarize three independent experiments. Results of Student’s t-test:*(P < 0.05, two-tailed test), ** (P < 0.01, two-tailed test), *** (P < 0.001, two-tailed test), **** (P < 0.0001, two-tailed test).
# Murine lymphocytes: The phenotype of murine lymphocytes was analyzed by flow cytometry using anti-CD3e-FITC, anti-CD19-PB, anti-CCR7-APC, anti-CD44-FITC, anti-CD62L-APC, and anti-TCR-β-PB (Biolegend, CA, USA).
# To eliminate the red blood cells, RBC lysis buffer (Beit Haemek, Israel) or BD FACS lysing solution (BD Biosciences, CA, USA) was added into murine blood and splenocyte samples. Flow cytometry was performed using the MACSQuant® Analyzer (Miltenyi Biotech, Germany), and the data were analyzed using FCS Express V3 software.
# C57BL/6 female mice aged 7–8 weeks were obtained from Harlan Laboratories (Jerusalem, Israel). The animal study was conducted under appropriate conditions and was approved by the Institutional Animal Care and Use Committee of the Hebrew University of Jerusalem in accordance with the national laws and regulations for the protection of animals. AD2900 was dissolved in 10% BSA (MP Biomedicals, CA, USA) in DDW at 1 mg/ml and then further diluted in 200 ml water to get final concentrations at 1.8, 2.7, or 3.6 mg/l. AD2900 and FTY720 were supplied ad libitum to the mice for 2 days or 7 days. At the end of the experiment, blood was collected, and the mice were sacrificed and tissues (lymph nodes and spleen) were harvested.
smiles,measurement,setting,value
CCCCCCCCCCCCCCCCNC(CO)(CO)CO [AD2900],IC50,[1],5.9 µM
same,"T cells in the blood, value in parentheses","[2]; 1.8 mg/l, 2-day treatment",0.7488 ± 0.1641 × 10^6 cells/ml
same,increase of average count of T cells in the blood,"[2]; 1.8 mg/l, 2-day treatment",81.9%
same,"T cells in the lymph nodes, value in parentheses",[2]; 2-day treatment,0.7411 ± 0.2217 × 10^5 cells/ml
same,"T cells in the spleen, value in parentheses",[2]; 2-day treatment,11.79 ± 3.64 × 10^6 cells/ml
same,decrease of T-cell average count in the lymph nodes,[2]; 2-day treatment,30%
same,increase of average count of T cells in the spleen,[2]; 2-day treatment,96.7%
same,"NK cells in the blood, value in parentheses",[2]; 7-day treatment,0.3987 ± 0.0706 × 10^6 cells/ml
same,"NK cells in the lymph nodes, value in parentheses",[2]; 7-day treatment,0.07852 ± 0.03572 × 10^5 cells/ml
same,"NK cells in the spleen, value in parentheses",[2]; 7-day treatment,4.741 ± 0.8621 × 10^6 cells/ml
same,decrease of NK cell count in the lymph nodes,[2]; 7-day treatment,20.8%
same,elevation of NK cell count in the spleen,[2]; 7-day treatment,55.7%
same,increase of average NK cell count in the blood,[2]; 7-day treatment,52.1%
same,B cell count in all the organs,"[2]; blood, spleen, lymph nodes",not significantly influenced
